Test results published in paper PMC4993649 (ChemMedChem, 2016).
Read-outs that look alike come from different tables or passages of the source.

How the values were obtained:
[1] = target: ERβ/C369-biotin-SaTb with SRC3 NRID-fluorescein (Homo sapiens, UniProt Q92731); test: tr-FRET ligand titration into ERβ and SRC3; assay type: biochemical; conditions: read-out: Ligand coactivator recruitment potency (Ligand titration) EC50; ligand titrated into 1 nM ERβ LBD, 0.25 nM SaTb, 100 nM SRC3-fluorescein; mean ± SD
Chain of ERβ/C369-biotin-SaTb with SRC3 NRID-fluorescein (Q9Y6Q9 627-829): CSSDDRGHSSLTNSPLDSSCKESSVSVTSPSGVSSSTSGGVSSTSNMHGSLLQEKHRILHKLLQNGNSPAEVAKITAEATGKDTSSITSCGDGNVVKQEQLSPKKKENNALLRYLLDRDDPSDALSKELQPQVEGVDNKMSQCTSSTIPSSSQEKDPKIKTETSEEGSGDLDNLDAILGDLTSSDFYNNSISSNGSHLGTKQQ
Chain of ERβ/C369-biotin-SaTb with SRC3 NRID-fluorescein (Q92731 256-503): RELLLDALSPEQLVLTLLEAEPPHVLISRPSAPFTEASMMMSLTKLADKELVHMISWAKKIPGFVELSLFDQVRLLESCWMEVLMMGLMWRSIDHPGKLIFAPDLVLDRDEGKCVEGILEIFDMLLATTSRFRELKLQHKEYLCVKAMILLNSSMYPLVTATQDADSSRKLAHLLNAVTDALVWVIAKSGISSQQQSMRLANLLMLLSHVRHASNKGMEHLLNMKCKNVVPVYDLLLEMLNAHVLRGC

[2] = target: T1, purified full-length human ERβ (Homo sapiens, UniProt Q92731); conditions: for β/α ratio (of RBA values): ERβ RBA / ERα RBA
T1 sequence (Q92731 whole entry): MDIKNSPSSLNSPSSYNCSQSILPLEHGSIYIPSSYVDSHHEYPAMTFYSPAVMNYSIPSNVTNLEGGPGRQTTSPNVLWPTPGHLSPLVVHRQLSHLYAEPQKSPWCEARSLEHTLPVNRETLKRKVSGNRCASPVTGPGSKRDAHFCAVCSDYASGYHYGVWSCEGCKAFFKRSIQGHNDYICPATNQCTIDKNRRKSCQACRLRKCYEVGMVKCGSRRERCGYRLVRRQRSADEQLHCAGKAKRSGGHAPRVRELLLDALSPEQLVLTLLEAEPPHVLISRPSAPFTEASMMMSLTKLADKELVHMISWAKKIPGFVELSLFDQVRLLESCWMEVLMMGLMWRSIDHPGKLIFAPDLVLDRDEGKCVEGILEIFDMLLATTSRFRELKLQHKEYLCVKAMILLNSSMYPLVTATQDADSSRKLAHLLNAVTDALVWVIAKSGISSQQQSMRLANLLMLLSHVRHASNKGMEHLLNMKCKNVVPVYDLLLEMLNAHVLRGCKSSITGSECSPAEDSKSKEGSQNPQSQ

[3] = target: T1, purified full-length human ERβ; test: biochemical
U87 glioma cells = test: Cell viability assay, U87; conditions: 96 h, read-out: Effects on cell growth IC50, U87
HCT colon cancer cells = test: Cell viability assay, HCT; conditions: 96 h, read-out: Effects on cell growth IC50, HCT
LoVo colon cancer cells = test: Cell viability assay, LoVo; conditions: 96 h, read-out: Effects on cell growth IC50, LoVo
MCF7 breast cancer cells = test: Cell viability assay, MCF7; conditions: Homo sapiens, MCF7, 96 h, read-out: Effects on cell growth IC50, MCF7
[4] = system: MDA-MB-231 breast cancer cells; test: Cell viability assay, MDA-MB-231; conditions: Homo sapiens, MDA-MB-231, 96 h, read-out: Effects on cell growth IC50, MDA231
[5] = system: SkBr3 breast cancer cells; test: Cell viability assay, SkBr3; conditions: Homo sapiens, SK-BR-3, 96 h, read-out: Effects on cell growth IC50, SkBr3
[6] = target: ERβ LBD/C369-biotin with SRC3 NRID-fluorescein (Homo sapiens, UniProt Q92731); test: tr-FRET SRC3 titration into ERβ-ligand complex; conditions: E2 = 100
Chain of ERβ LBD/C369-biotin with SRC3 NRID-fluorescein (Q9Y6Q9 627-829): as the sequence (Q9Y6Q9 627-829) above
Chain of ERβ LBD/C369-biotin with SRC3 NRID-fluorescein (Q92731 256-503): as the sequence (Q92731 256-503) above

β/α ratio (of RBA values) [2] | SMILES | EC50 [1] [µM] | Ki [3] [µM] | Efficacy % (completeness of the curves relative to E2) [6] [%] | further results
3.0 | COc1ccc(-c2ccc(O)c3c2CC/C3=N\O)cc1 [1b, (E)-7-hydroxy-4-(4-methoxyphenyl)-2,3-dihydro-1H-inden-1-one oxime] | – | – | – | –
0.8 | COc1ccc(-c2ccc(O)c3c2CC/C3=N\O)cc1F [1d, (E)-4-(3-fluoro-4-methoxyphenyl)-7-hydroxy-2,3-dihydro-1H-inden-1-one oxime] | – | – | – | –
6.3 | Cc1cc(-c2ccc(O)c3c2CC/C3=N\O)ccc1O [1e, (E)-7-hydroxy-4-(4-hydroxy-3-methylphenyl)-2,3-dihydro-1H-inden-1-one oxime] | – | – | – | –
1.0 | COc1ccc(-c2ccc(O)c3c2CC/C3=N\O)cc1C [1f, (E)-7-hydroxy-4-(4-methoxy-3-methylphenyl)-2,3-dihydro-1H-inden-1-one oxime] | – | – | – | –
8.0 | O/N=C1\CCc2c(-c3ccc(O)c(Cl)c3)ccc(O)c21 [1g, (E)-4-(3-chloro-4-hydroxyphenyl)-7-hydroxy-2,3-dihydro-1H-inden-1-one oxime] | – | – | – | –
0.50 | COc1ccc(-c2ccc(O)c3c2CC/C3=N\O)cc1Cl [1h, (E)-4-(3-chloro-4-methoxyphenyl)-7-hydroxy-2,3-dihydro-1H-inden-1-one oxime] | – | – | – | –
– | O=C1C[C@@H](c2ccc(O)cc2)Oc2cc(O)ccc21 [Liquiritigenin, reference compound] | – | – | – | IC50 (U87 glioma cells; human glioma, mean ± SD): 115 ± 11.7 µM; IC50 (HCT colon cancer cells; human colon cancer, mean ± SD): 75.3 ± 7.1 µM; IC50 (LoVo colon cancer cells; human colon cancer, mean ± SD): 101 ± 10.2 µM

SMILES | β/α ratio (of RBA values) [2] | EC50 [1] [µM] | Ki [3] [µM] | Efficacy % (completeness of the curves relative to E2) [6] [%] | further results
O/N=C1\CCc2c(-c3ccc(O)cc3)ccc(O)c21 [1a, (E)-7-hydroxy-4-(4-hydroxyphenyl)-2,3-dihydro-1H-inden-1-one oxime] | 16 | 0.0142 ± 0.003 | 0.0117 | 93 | IC50 (U87 glioma cells; Homo sapiens, U-87 MG): 150.7 ± 1.2 µM; IC50 (HCT colon cancer cells; Homo sapiens): 61.5 ± 8.8 µM; IC50 (LoVo colon cancer cells; Homo sapiens, LoVo): 19.8 ± 2.1 µM; IC50 (MCF7 breast cancer cells): 70.1 ± 12.4 µM; IC50 [4]: 42.3 ± 1.1 µM; IC50 [5]: 140 ± 11.2 µM
O/N=C1\CCc2c(-c3ccc(O)c(F)c3)ccc(O)c21 [1c, (E)-4-(3-fluoro-4-hydroxyphenyl)-7-hydroxy-2,3-dihydro-1H-inden-1-one oxime] | 33 | 0.0195 ± 0.0026 | 0.0106 | 88 | IC50 (U87 glioma cells; Homo sapiens, U-87 MG): 32.3 ± 1.1 µM; IC50 (HCT colon cancer cells; Homo sapiens): 10.8 ± 1.2 µM; IC50 (LoVo colon cancer cells; Homo sapiens, LoVo): 14.5 ± 3.1 µM; IC50 (MCF7 breast cancer cells): 23.2 ± 1.4 µM; IC50 [4]: 8.1 ± 1.3 µM; IC50 [5]: 130 ± 9.7 µM
O/N=C1\CCc2c(-c3ccccc3)ccc(O)c21 [1i, (E)-7-hydroxy-4-phenyl-2,3-dihydro-1H-inden-1-one oxime] | 89 | 0.393 ± 0.124 | 0.282 | 72 | decrease of ERβ affinity compared to 1a ([2]; from RBA values): 24 fold
